The subject of data set [1] is Mycobacterium tuberculosis. In words: Antimycobacterial activity against Mycobacterium tuberculosis H37Rv ATCC 27294 by BACTEC radiometric method. It counts as functional.
Data set [2] relates to Mycobacterium tuberculosis. In words: Antimycobacterial activity against Mycobacterium tuberculosis H37Ra ATCC 25177 incubated for 7 days by microplate alamar blue assay. The data set is classed as functional. The following applies: H37Ra ATCC 25177, 168 h, time 7 day. (In general: The colour change of resazurin is a common sign of viable cells or microbes.)
A short description of data set [3]: Selectivity index, ratio of IC50 for African green monkey Vero cells to MIC for antitubercular activity against Mycobacterium tuberculosis H37Ra ATCC 25177. It counts as toxicity.
Data set [4] has as its system Mycobacterium tuberculosis. In words: Bactericidal activity against Mycobacterium tuberculosis H37Ra ATCC 25177 assessed as ratio of MBC to MIC. The data set is classed as functional.
For data set [5], the system named is Mycobacterium tuberculosis. The data set is described as follows: Antimycobacterial activity against Mycobacterium tuberculosis H37Rv assessed as growth inhibition at 12.5 ug/ml by BACTEC radiometric method relative to control. It counts as functional. The following applies: read-out: GI.
The test system of data set [6] is Mycobacterium tuberculosis. The data set is described as follows: Antimycobacterial activity against Mycobacterium tuberculosis. The data set is classed as functional.
In data set [7] the test system is Mycobacterium tuberculosis. In words: Antimycobacterial activity against Mycobacterium tuberculosis H37Rv. The data set is classed as functional.
In data set [8] the test system is Mycobacterium tuberculosis. The data set is described as follows: Antimycobacterial activity against Mycobacterium tuberculosis H37Ra ATCC 25177 measured on 8th to 12th day by XTT reduction menadione assay. It counts as functional. The following applies: time 8-12 day.
For data set [9], the system named is Mycobacterium tuberculosis. In words: Antimycobacterial activity against Mycobacterium tuberculosis H37Rv assessed as growth inhibition at 50 ug/ml by Lowenstein-Jensen method relative to control. The following applies: read-out: GI. It counts as functional.
In data set [10] the test system is Mycobacterium tuberculosis. In words: Antimycobacterial activity against Mycobacterium tuberculosis H37Rv 27294 by microplate alamar blue assay. The data set is classed as functional.
Data set [11] in a line: Cytotoxicity against African green monkey Vero cells after 72 hrs by cell titer glo luminescent cell viability assay. It counts as cell-based. The following applies: chlorocebus sabaeus. For orientation: Cellular ATP, detected with luciferase, serves as a proxy for viable cell number.
In data set [12] the test system is Mycobacterium tuberculosis. The data set is described as follows: Antimycobacterial activity against Mycobacterium tuberculosis H37Rv assessed as bacterial growth inhibition at 6.25 ug/ml by BACTEC MGIT method relative to control. The data set is classed as functional.
For data set [13], the system named is Mycolicibacterium smegmatis. The data set is described as follows: Antimycobacterial activity against Mycobacterium smegmatis ATCC 35797 incubated for 48 hrs by agar dilution method. It counts as functional. Background: In agar dilution the substance is mixed into plates at graded concentrations.
Data set [14] deals with Mycobacterium tuberculosis. In words: Antimycobacterial activity against Mycobacterium tuberculosis H37Rv assessed as growth inhibition at 6.25 ug/ml by BACTEC radiometric method relative to control. The data set is classed as functional. The following applies: read-out: GI.
Data set [15] has as its system Mycobacterium tuberculosis. In words: Antimycobacterial activity against Mycobacterium tuberculosis H37Rv assessed as growth inhibition at 6.25 ug/ml by microplate alamar blue assay relative to control. The data set is classed as functional. The following applies: read-out: GI.
For data set [16], the system named is Mycobacterium tuberculosis. In words: Antimycobacterial activity against Mycobacterium tuberculosis H37Rv incubated for 45 days by Lowenstein-Jensen method. The data set is classed as functional. The following applies: 1080 h, time 45 day.
The test system of data set [17] is Mycobacterium tuberculosis. The data set is described as follows: Antimycobacterial activity against Mycobacterium tuberculosis H37Rv measured after 12 to 28 days by Lowenstein-Jensen method. The following applies: time 12-28 day. It counts as functional.
Data set [18] has as its system Mycobacterium tuberculosis. The data set is described as follows: Antimycobacterial activity against Mycobacterium tuberculosis by microplate alamar blue assay. It counts as functional.

Molecules are shown by their SMILES. In brackets after ≈: the same amount, converted by molar mass.

One may read the MIC as the lowest concentration found to suppress growth. In data set [1], `N#Cc1ccc(C2SCC(=O)N2NC(=O)c2[nH]c3ccc(F)cc3c2-c2ccccc2)cc1` (configuration not stated) yielded an MIC of 6.25 µg/mL (≈ 13.7 µM). Same read-out and setting: the same measure for `O=C(NN1C(=O)CSC1c1ccc([N+](=O)[O-])cc1)c1[nH]c2ccc(F)cc2c1-c1ccccc1` (configuration not stated): 6.25 µg/mL (≈ 13.1 µM). Molecule `NC(=S)N/N=C/c1ccc(OC(=O)CC2SC(=O)NC2=O)cc1` (configuration not stated) gave an MIC in [2] of 0.031 µg/mL (≈ 0.088 µM). Also, the selectivity ratio in data set [3] was greater than 10. Also, in [4], the Ratio stood at 2.

In the case of `Cc1ccc(N2C(=O)CSC23C(=O)Nc2ccc(C)cc23)cc1` (configuration not stated), the inhibition of growth at 12.5 µg/mL in data set [5] is 90%. On to `NC(=S)N/N=C/c1ccc(OC(=O)/C=C2\SC(=O)NC2=O)c(Cl)c1`, for which the MIC in [2] came out at 0.031 µg/mL (≈ 0.0806 µM). Moreover, the selectivity ratio in [3] was greater than 10. The Ratio in data set [4] is 2. On to `O=C(O)c1ccc(N2C(=O)CSC23C(=O)Nc2ccc(F)cc23)cc1O` (configuration not stated), for which, in [5], the inhibition of growth at 12.5 µg/mL came to 98%.

Take `Cc1nc(/N=C2\C(=O)Nc3ccccc32)sc1C(=O)NN1C(=O)CSC1c1ccccc1Cl` (configuration not stated): in data set [6], inhibition of growth (MIC) required 0.78 µM (≈ 0.388 µg/mL). In data set [7], `O=C1/C(=C/c2ccc([N+](=O)[O-])cc2)SC(c2ccc([N+](=O)[O-])cc2)N1NCCNc1ncc([N+](=O)[O-])s1` (configuration not stated) returned an MIC of 25 µg/mL (≈ 46 µM). A word on the IC90: it is the concentration needed for an effect of 90%. `Cc1cc(NS(=O)(=O)c2ccc(N3C(=O)CSC3c3c(F)cccc3F)cc2)no1` (configuration not stated) showed an IC90 in data set [8] of 0.43 µg/mL (≈ 0.952 µM). Turning to `O=C(NCCCN1c2ccccc2Sc2ccccc21)N1C(=O)/C(=C/c2ccc([N+](=O)[O-])cc2)SC1c1ccc([N+](=O)[O-])cc1` (configuration not stated), the inhibition of growth at 50 µg/mL in [9] was 82%. One may read the CC50 as the concentration at which the toxic effect on the cells reaches its halfway point. As for `CCN1C(=O)/C(=C/c2ccccc2F)S/C1=N/NC(=O)c1ccncc1`, it took 2.95 µg/mL (≈ 7.97 µM) to reach the 90% level in [10] (IC90). Further, the CC50 at 72 h in data set [11] was found to be 22.8 µg/mL (≈ 61.4 µM). For `O=C1CSC(c2ccccc2)N1C(=O)NCCCN1c2ccccc2Sc2ccccc21` (configuration not stated), the inhibition of growth at 50 µg/mL in data set [9] is 75%. As a reminder, the inhibition is the drop in the measured response relative to a control, in per cent. As to `Cc1nc2ccccc2c(=O)n1CCNC1=NC(=O)/C(=C/c2cccc(Cl)c2)S1`, in [12], the inhibition at 6.25 µg/mL was found to be 99%. Regarding `CCC1SCC(=O)N1NC(=O)c1ccncc1` (configuration not stated), the MIC in [13] is greater than 100 µg/mL. For the molecule `COc1ccc(C(=O)Nc2ccc(C(=O)NN3C(=O)CSC3c3ccccc3)cc2)cc1` (configuration not stated), the inhibition of growth at 6.25 µg/mL in data set [14] was 90%. Turning to `O=C1CSC(c2ccc(Cl)cc2)N1NC(=O)C(O)(c1ccccc1)c1ccccc1` (configuration not stated), the inhibition of growth at 6.25 µg/mL in [15] came out at 99%. For `CCCCCCCCCCC1SCC(=O)N1NC(=O)c1ccncc1` (configuration not stated), in [13], inhibition of growth (MIC) required 25 µg/mL (≈ 68.8 µM). As for `CC1Oc2ccccc2C=C1/C=C1\SC(=S)NC1=O` (configuration not stated), the minimum inhibitory concentration (MIC) in data set [16] was found to be 0.36 µM (≈ 0.104 µg/mL).

`N#CSc1ccc2nc(NC(=O)CN3C(=O)/C(=C/c4cccc(Br)c4)SC3=S)sc2c1` gave a minimal inhibitory concentration (MIC) in data set [17] of 25 µg/mL (≈ 45.7 µM).

Take `C/C(=N\N1C(=O)CSC1c1ccc(O)cc1)c1oc2ccc(Cl)cc2c1C` (configuration not stated): in [7], it took 25 µg/mL (≈ 62.4 µM) to inhibit growth (MIC). Take `CC1SC(c2ccc(C#N)cc2)N(NC(=O)C(O)(c2ccccc2)c2ccccc2)C1=O` (configuration not stated): the inhibition of growth at 6.25 µg/mL in data set [15] amounted to 99%.

In the case of `COc1ccc(/C=C2\SC(=S)N(Cc3nnc(-c4cccnc4SCc4ccccc4)o3)C2=O)cc1`, the inhibition of growth at 50 µg/mL in data set [9] was 99%. The molecule `O=C(NN1C(=O)CSC1c1cccc([N+](=O)[O-])c1)c1coc2ccc3ccccc3c12` (configuration not stated) displayed an MIC in data set [18] of 50 µg/mL (≈ 115 µM). For the molecule `Cc1cc(NS(=O)(=O)c2ccc(N3C(=O)CSC3c3ccc(Cl)cc3)cc2)no1` (configuration not stated), in data set [8], it took 0.43 µg/mL (≈ 0.956 µM) to reach the 90% level (IC90).

On to `NC(=S)N/N=C/c1ccc(OC(=O)CC2SC(=O)NC2=O)c(Br)c1` (configuration not stated), for which the MIC in [2] turned out to be 0.031 µg/mL (≈ 0.0719 µM). In addition, the selectivity ratio in data set [3] was greater than 10. The Ratio in data set [4] is 2. Take `CC1SC(c2ccc(OCc3ccccc3)cc2)N(NC(=O)C(O)(c2ccccc2)c2ccccc2)C1=O` (configuration not stated): in data set [15], the inhibition of growth at 6.25 µg/mL stood at 98%. In [13], `CCCCCCCCCCCC1SCC(=O)N1NC(=O)c1ccncc1` (configuration not stated) showed an MIC of 6 µg/mL (≈ 15.9 µM). As for `O=C1/C(=C/c2ccc(F)cc2)SC(=S)N1Cc1nnc(-c2cccnc2SCc2ccccc2)o1`, the inhibition of growth at 50 µg/mL in [9] came to 99%. `Cc1nc(/N=C2\C(=O)Nc3ccccc32)sc1C(=O)NN1C(=O)CSC1c1ccc(F)cc1` (configuration not stated) came in with a minimal inhibitory concentration (MIC) in data set [6] of 0.78 µM (≈ 0.376 µg/mL). On to `O=C1/C(=C/c2ccccc2Cl)SC(c2ccccc2Cl)N1NCCNc1ncc([N+](=O)[O-])s1` (configuration not stated), for which the minimal inhibitory concentration (MIC) in data set [7] came to 25 µg/mL (≈ 47.9 µM).

Source of the values: ChEMBL document CHEMBL4813957, “Antitubercular properties of thiazolidin-4-ones - A review” (Eur J Med Chem, 2021).
